# Test system: 22Rv1-Enz^R
# Assay: 22Rv1-Enz^R cell proliferation assay
# Type: cell-based
# Conditions: human prostate cancer cell line 22Rv1-Enz^R; 6-day culture, cell media changed every 24 hours; half maximal growth inhibition constant; read-out: 22Rv1-Enz^R proliferation assay GIC50
# Experimental: The human prostate cancer cell line, 22Rv1 has been reported to express a high level of AR-V7. According to one procedure, 22Rv1 is seeded at 50,000 cells/well on a 24-well plate in quadruplicate and treated with test compounds in concentrations ranging up to 20 μM for four days. Standard culture media is RPMI-1640 supplemented with 10% fetal bovine serum. The test compound initially is dissolved in DMSO at 50 mM. This stock solution is then diluted as needed for the indicated concentrations. At the end of the four-day period, cells are harvested using 1% trypsin and counted using an automated cell counter.
# Selected compounds may be tested in the human prostate cancer cell line, 22Rv1-Enz^R as described in Geun Taek Lee et al., Molecular Cancer Therapeutics, 20:490-9 (2021). These procedures are similar to that described in Experimental Example 1, above, except that the assay conditions are a 6-day culture with cell media changed every 24 hours.
# In the following Table (half maximal growth inhibition constant, GIC50): (*)-GIC50 2-10 μM; (++)-GIC50 1.0-2.0 μM; (+++)-GIC50<1.0 μM.
row,SMILES,IC50 [nM]
1,"O=C(COc1ccc(C2CCC(=O)NC2=O)cc1)NCCCCCCCCNC(=O)COc1c(-c2csc(N3CCOCC3)n2)ccc(F)c1F (stereo not drawn) [Example 1, 2-(2,3-Difluoro-6-(2-morpholinothiazol-4-yl)phenoxy)-N-(8-(2-(4-(2,6-dioxopiperidin-3-yl)phenoxy)acetamido)octyl)acetamide]",< 1000
2,"O=C1CCC(c2ccc(OCC(=O)N3CCN(CCOCCOc4c(-c5csc(N6CCOCC6)n5)ccc(F)c4F)CC3)cc2)C(=O)N1 (stereo not drawn) [Example 2, 3-(4-(2-(4-(2-(2-(2,3-Difluoro-6-(2-morpholinothiazol-4-yl)phenoxy)ethoxy)ethyl)piperazin-1-yl)-2-oxoethoxy)phenyl)piperidine-2,6-dione]",1000 to 2000
3,"O=C(COc1ccc(C2CCC(=O)NC2=O)cc1)NCCOCCOCCOCCOc1c(-c2csc(N3CCOCC3)n2)ccc(F)c1F (stereo not drawn) [Example 3, N-(2-(2-(2-(2-(2,3-Difluoro-6-(2-morpholinothiazol-4-yl)phenoxy)ethoxy)ethoxy)ethoxy)ethyl)-2-(4-(2,6-dioxopiperidin-3-yl)phenoxy)acetamide]",2000 to 10000
4,"O=C(CCCCCCCCOc1c(-c2csc(N3CCOCC3)n2)ccc(F)c1F)NCCCCC(=O)Nc1ccc(C2CCC(=O)NC2=O)cc1 (stereo not drawn) [Example 4, 9-(2,3-difluoro-6-(2-morpholinothiazol-4-yl)phenoxy)-N-(5-((4-(2,6-dioxopiperidin-3-yl)phenyl)amino)-5-oxopentyl)nonanamide]",< 1000
5,"O=C(CCCCCCCCOc1cccc(-c2csc(N3CCOCC3)n2)c1)NCCCCC(=O)Nc1ccc(C2CCC(=O)NC2=O)cc1 (stereo not drawn) [Example 6, N-(5-((4-(2,6-dioxopiperidin-3-yl)phenyl)amino)-5-oxopentyl)-9-(3-(2morpholinothiazol-4-yl)phenoxy)nonanamide]",2000 to 10000
6,"O=C(CCCCCCCCOc1ccc(-c2csc(N3CCOCC3)n2)cc1)NCCCCC(=O)Nc1ccc(C2CCC(=O)NC2=O)cc1 (stereo not drawn) [Example 7, N-(5-((4-(2,6-Dioxopiperidin-3-yl)phenyl)amino)-5-oxopentyl)-9-(4-(2morpholinothiazol-4-yl)phenoxy)nonanamide]",1000 to 2000
7,"O=C1CCC(c2ccc(OCCOCCOCCn3cc(CCOc4c(-c5csc(N6CCOCC6)n5)ccc(F)c4F)nn3)cc2)C(=O)N1 (stereo not drawn) [Example 10, 3-(4-(2-(2-(2-(4-(2-(2,3-difluoro-6-(2-morpholinothiazol-4-yl)phenoxy)ethyl)-1H-1,2,3-triazol-1-yl)ethoxy)ethoxy)ethoxy)phenyl)piperidine-2,6-dione]",2000 to 10000
8,"O=C1CCC(c2ccc(OCCOCCOCCOCCn3cc(CCOc4c(-c5csc(N6CCOCC6)n5)ccc(F)c4F)nn3)cc2)C(=O)N1 (stereo not drawn) [Example 11, 3-(4-(2-(2-(2-(2-(4-(2-(2,3-difluoro-6-(2-morpholinothiazol-4-yl)phenoxy)ethyl)-1H-1,2,3-triazol-1-yl)ethoxy)ethoxy)ethoxy)ethoxy)phenyl)piperidine-2,6-dione]",1000 to 2000
9,"O=C1CCC(c2ccc(NC(=O)CCCCCCCCOc3c(-c4csc(N5CCOCC5)n4)ccc(F)c3F)cc2)C(=O)N1 (stereo not drawn) [Example 12, 9-(2,3-difluoro-6-(2-morpholinothiazol-4-yl)phenoxy)-N-(4-(2,6-dioxopiperidin-3-yl)phenyl)nonanamide]",2000 to 10000
10,"O=C(CCCCCCCCOc1c(-c2csc(N3CCOCC3)n2)ccc(F)c1F)NCCCCCCC(=O)Nc1ccc(C2CCC(=O)NC2=O)cc1 (stereo not drawn) [Example 13, 9-(2,3-difluoro-6-(2-morpholinothiazol-4-yl)phenoxy)-N-(7-((4-(2,6-dioxopiperidin-3-yl)phenyl)amino)-7-oxoheptyl)nonanamide]",1000 to 2000
11,"O=C(CCCCCCCCOc1c(-c2csc(N3CCOCC3)n2)ccc(F)c1F)NCCOCCOCC(=O)Nc1ccc(C2CCC(=O)NC2=O)cc1 (stereo not drawn) [Example 14, 9-(2,3-difluoro-6-(2-morpholinothiazol-4-yl)phenoxy)-N-(2-(2-(2-((4-(2,6-dioxopiperidin-3-yl)phenyl)amino)-2-oxoethoxy)ethoxy)ethyl)nonanamide]",1000 to 2000
12,"O=C(CCCCCCCCOc1c(-c2csc(N3CCOCC3)n2)ccc(F)c1F)NCCCCNC(=O)c1ccc(N2CCC(=O)NC2=O)cc1 [Example 15, N-(4-(9-(2,3-difluoro-6-(2-morpholinothiazol-4-yl)phenoxy)nonanamido)butyl)-4-(2,4-dioxotetrahydropyrimidin-1(2H)-yl)benzamide]",2000 to 10000

# — patent US20240207415A1, “BI-FUNCTIONAL COMPOUNDS AND METHODS FOR TARGETED UBIQUITINATION OF ANDROGEN RECEPTOR” (MONTELINO THERAPEUTICS, INC., priority 2022, published 2024)
